Assay results as given in paper PMC9920998, “Synthesis of Oleanolic Acid-Dithiocarbamate Conjugates and Evaluation of Their Broad-Spectrum Antitumor Activities” (Molecules, 2023).

Key:
Format in all cases: cell-based
[1] = test system: Panc1 cells (human pancreatic cancer); experiment: MTT cytotoxicity assay, Panc1
Experimental: (§1) Having obtained a series of structurally diverse OA-dithiocarbamates, we next performed a systematic biological evaluation to examine whether introducing an extra dithiocarbamate group could improve antitumor activities. These compounds were evaluated by MTT assay against human pancreatic cancer (Panc1), human lung cancer (A549), human hepatoma cell (Hep3B), human hepatoma cell (Huh-7), human colon cancer (HT-29), and human cervical cancer (Hela) cells, with the widely used anticancer drugs fluorouracil, docetaxel, and cisplatin as positive controls (Table 2). […] Moreover, the cytotoxicities of compounds 3a-3t were also evaluated in human normal hepatocytes (LO2) to determine whether these compounds preferred killing tumor cells over normal cells.
(§2) The optical density at 490 nm of each well was measured using a microplate reader (Molecular devices corporation, Sunnyvale, CA. USA) to calculate the percent of cell viability. The inhibition rates were calculated using GraphPad Prism 7.0 software. The seven tested cell lines were obtained from the laboratory of Molecular Pharmacology, Department of Pharmacology, School of Pharmacy, Southwest Medical University.
(§3) The in vitro cytotoxic activities of the compounds were evaluated by MTT assay against Panc1, A549, Hep3B, Huh-7, HT-29, Hela, LO2. Cell lines were obtained from the Laboratory of Molecular Pharmacology, Southwest Medical University. Briefly, different tumor cells grew in DMEM medium except for A549, which used 1640 medium. Cells ((3–5) × 10^3 cells/well) were harvested at the log phase of growth and seeded in 96-well plates. After 24 h incubation at 37 °C in 5% CO2 to allow cell attachment, cultures were exposed to various concentrations of the isolated compounds for 48 h. Finally, the MTT solution was added. Plates were further incubated for 4 h at 37 °C after adding 150 µL/well of DMSO and shaking for 10 min on the shaker platform. The plates were read in a 96-well plate reader at 490 nm wavelength. The results were expressed as IC50 values, and were defined as the concentration at which 50% survival of cells was obtained. Fluorouracil, docetaxel, and cisplatin were co-assayed as positive controls.

[2] = test system: A549 cells (human lung cancer); experiment: MTT cytotoxicity assay, A549; details: 48 h exposure
Experimental: as §1, §2, §3

[3] = test system: Hep3B cells (human hepatoma cell); experiment: MTT cytotoxicity assay, Hep3B; details: 48 h exposure
Experimental: as §1, §2, §3

[4] = test system: Huh-7 cells (human hepatoma cell); experiment: MTT cytotoxicity assay, Huh-7; details: Huh-7, MTT, 48 h exposure
Experimental: as §1, §2, §3

[5] = test system: HT-29 cells (human colon cancer); experiment: MTT cytotoxicity assay, HT-29; details: HT-29, MTT, 48 h exposure
Experimental: as §1, §2, §3

[6] = test system: Hela cells (human cervical cancer); experiment: MTT cytotoxicity assay, Hela; details: 48 h exposure
Experimental: as §1, §2, §3

[7] = test system: LO2 cells (human normal hepatocytes); experiment: MTT cytotoxicity assay, LO2 normal cells
Experimental: as §1, §2, §3

[8] = Homo sapiens, PANC-1, 48 h exposure

| SMILES | IC50 ([1]; 48 h exposure) | IC50 [2] | IC50 [3] | IC50 [4] | IC50 [5] | IC50 [6] | IC50 ([7]; 48 h exposure) | IC50 [1, 8] | IC50 ([2]; Homo sapiens) | IC50 ([3]; Homo sapiens) | IC50 ([4]; Homo sapiens) | IC50 ([5]; Homo sapiens) | IC50 ([6]; Homo sapiens) | IC50 ([7]; L02, 48 h exposure) |
| --- | --- | --- | --- | --- | --- | --- | --- | --- | --- | --- | --- | --- | --- | --- |
| N.N.[Cl][Pt][Cl] [Cisplatin] | > 200 µM | > 200 µM | > 200 µM | > 200 µM | > 200 µM | 142 µM | > 200 µM |  |  |  |  |  |  |  |
| CC(=O)O[C@@]12CO[C@@H]1C[C@H](O)[C@@]1(C)C(=O)[C@H](O)C3=C(C)[C@@H](OC(=O)[C@H](O)[C@@H](NC(=O)OC(C)(C)C)c4ccccc4)C[C@@](O)([C@@H](OC(=O)c4ccccc4)[C@H]21)C3(C)C [Docetaxel] |  |  |  |  |  |  |  | > 200 µM | > 200 µM | 172 µM | 104 µM | > 200 µM | 135 µM | 140 µM |
| CC1(C)CC[C@]2(C(=O)OCCSC(=S)N3CCCC3)CC[C@]3(C)C(=CC[C@@H]4[C@@]5(C)CC[C@H](O)C(C)(C)[C@@H]5CC[C@]43C)[C@@H]2C1 [3a, [2-((pyrrolidine-1-carbonothioyl)thio)ethyl] 3-hydroxy-12-en-28-oic acid] |  |  |  |  |  |  |  | > 200 µM | 92.1 µM | > 200 µM | 145 µM |  | 89.4 µM | 113 µM |
| CC1(C)CC[C@]2(C(=O)O)CC[C@]3(C)C(=CC[C@@H]4[C@@]5(C)CC[C@H](O)C(C)(C)[C@@H]5CC[C@]43C)[C@@H]2C1 [OA, oleanolic acid] |  |  |  |  |  |  |  | > 200 µM | > 200 µM | > 200 µM | > 200 µM | > 200 µM | > 200 µM | 140 µM |
| O=c1[nH]cc(F)c(=O)[nH]1 [5-fluorouracil] |  |  |  |  |  |  |  | 160 µM | 125 µM | 152 µM | 140 µM | 93.3 µM | 130 µM | 109 µM |
